In the assay the test system is MRP1 cells, doxorubicin viability shift, 10 uM compound. Briefly: doxorubicin EC50 increase in MRP-1 cells, dose response, cell-based, doxorubicin EC50 shift (AID 844). The settings on record: for EC50: measured here: doxorubicin EC50 with compound.

SMILES strings stand for the structures. Calls of active or inactive are those of the source. The rule behind the calls is not given here.

Drawing on PubChem BioAssay AID844 (SRMLSC, 2007), this text covers fold increase in Dox EC50 and EC50 for 62 molecules.

For the molecule `Cc1nn(Cc2ccccc2)c(C)c1NC(=O)c1noc2c1CCc1ccccc1-2`, the fold increase in Dox EC50 was 0.95 (inactive) and the EC50 – broadly, the concentration giving half of the maximal effect – amounted to 5.11 µM.

Turning to `Cc1ccc(-c2nnn(CC(=O)N(c3ccccc3F)C(C(=O)NCC3CCCO3)c3c[nH]c4ccccc34)n2)cc1` (centres undefined), the fold increase in Dox EC50 was 0.5 (inactive) and the EC50 was 2.67 µM.

As for `O=C(COc1ccc(Br)cc1)N1CCN(C2CCCC2)CC1`, the fold increase in Dox EC50 was 1.08 (inactive) and the EC50 turned out to be 5.85 µM.

For `Cc1cccc(Cc2cnc(NC(=O)CN3C(=O)/C(=C/c4ccccc4)SC3=S)s2)c1`, the fold increase in Dox EC50 is 1.53 and the EC50 was found to be 8.25 µM.

On to `CC1CCN(c2ncnc3c2cnn3-c2ccccc2)CC1`, for which the fold increase in Dox EC50 is 0.31 (inactive) and the EC50 came to 1.65 µM.

With `COc1ccc(NC2=Nc3ccccc3N3C2=Nc2c(c(C)nn2-c2ccc(C)cc2)C3c2cccnc2)cc1` (centres undefined), the fold increase in Dox EC50 is 0.6 (inactive) and the EC50 was 3.24 µM.

For the molecule `COc1ccc(C2=NN(C(=O)c3cccs3)C(c3ccc(OC)cc3)C2)cc1` (centres undefined), the fold increase in Dox EC50 was 1.06 (inactive) and the EC50 stood at 5.7 µM.

For `CCOc1ccc2c(c1)c(N=O)c(O)n2C`, the fold increase in Dox EC50 was 0.58 (inactive) and the EC50 stood at 3.14 µM.

For the molecule `Cc1ccc(C2=CC(C)(c3ccc(C)cc3)Nc3nc(C(F)(F)F)nn32)cc1` (centres undefined), the fold increase in Dox EC50 is 0.94 (inactive) and the EC50 turned out to be 5.1 µM.

For `O=C(Nc1nc(-c2cccs2)c(-c2cccs2)s1)C1(c2ccccc2)CC1`, the fold increase in Dox EC50 is 0.66 (inactive) and the EC50 was found to be 3.58 µM.

For the molecule `CC1CCc2c(sc3nc(CSc4ncn[nH]4)[nH]c(=O)c23)C1` (centres undefined), the fold increase in Dox EC50 is 0.81 (inactive) and the EC50 was found to be 4.4 µM.

For `CCOC(=O)N1CCN(C(=O)CSc2nnc(COc3ccc(Cl)cc3)o2)CC1`, the fold increase in Dox EC50 is 1.03 (inactive) and the EC50 stood at 5.55 µM.

With `O=C(NCCN1C(=O)S/C(=C/c2ccccc2)C1=O)C1CCCN1C(=O)c1cccs1` (centres undefined), the fold increase in Dox EC50 was 0.61 (inactive) and the EC50 was found to be 3.3 µM.

On to `C=C(Cl)COc1ccc2c(CCCC)cc(=O)oc2c1`, for which the fold increase in Dox EC50 is 0.81 (inactive) and the EC50 is 4.35 µM.

For `COc1ccc(-c2nnc(SC(C)C(=O)Nc3cccc(Cl)c3)o2)cc1` (centres undefined), the fold increase in Dox EC50 is 0.74 (inactive) and the EC50 is 4 µM.

As for `O=C(CSc1ccccc1)Nc1nnc(COc2ccc(Cl)cc2)s1`, the fold increase in Dox EC50 was 0.43 (inactive) and the EC50 stood at 2.34 µM.

Turning to `Cc1ccc(OCc2nnc(SC3CCc4ccccc4C3=O)n2C)cc1` (centres undefined), the fold increase in Dox EC50 is 1.22 (inactive) and the EC50 amounted to 6.56 µM.

With `Cc1noc(/C=C/N(C)C)c1S(=O)(=O)N1CCCC(C(=O)N2CCCCC2)C1` (centres undefined), the fold increase in Dox EC50 is 0.74 (inactive) and the EC50 stood at 3.98 µM.

`O=C1C(Cc2cccc([N+](=O)[O-])c2)SC(=Nc2ccccc2)N1c1ccccc1` (centres undefined): the fold increase in Dox EC50 was 0.73 (inactive) and the EC50 was determined as 3.94 µM.

Turning to `Clc1ccc(OCc2nnnn2-c2ccccc2)cc1`, the fold increase in Dox EC50 is 0.96 (inactive) and the EC50 stood at 5.21 µM.

On to `N#C/C(=N\Nc1ccccc1F)C(=N)N1CCCCC1`, for which the fold increase in Dox EC50 is 0.79 (inactive) and the EC50 worked out at 4.26 µM.

In the case of `Cc1nc(=O)c(-c2ccccc2)c(C)n1-c1ccc(S(N)(=O)=O)cc1`, the fold increase in Dox EC50 was 1.53 and the EC50 was found to be 8.25 µM.

Regarding `O=C(CSc1ncn[nH]1)NCCC(c1ccccc1)c1ccccc1`, the fold increase in Dox EC50 was 0.56 (inactive) and the EC50 stood at 3.03 µM.

On to `COc1ccc(C(=O)NCc2ccc3c(c2)OCO3)cc1S(=O)(=O)N(C)Cc1ccccc1`, for which the fold increase in Dox EC50 is 0.75 (inactive) and the EC50 was 4.08 µM.

On to `Cc1c(C)n(C)c2ccc(C(=O)NCc3cccs3)cc12`, for which the fold increase in Dox EC50 was 1.06 (inactive) and the EC50 was 5.75 µM.

For the molecule `O=C(Nc1nc(-c2ccc(Oc3ccccc3)cc2)cs1)C1=COCCO1`, the fold increase in Dox EC50 was 0.84 (inactive) and the EC50 was found to be 4.54 µM.

In the case of `Cc1ccc(S(=O)(=O)N2CCN(c3nc(C)c4c(c3C#N)CC(C)(C)OC4)CC2)cc1`, the fold increase in Dox EC50 was 0.72 (inactive) and the EC50 amounted to 3.91 µM.

For the molecule `Cc1cccc(NC(=O)Cn2c(=O)n(Cc3ccco3)c(=N)c3c4c(sc32)COC(C)(C)C4)c1`, the fold increase in Dox EC50 is 0.81 (inactive) and the EC50 is 4.37 µM.

As for `C=CCc1c(C)nc(-c2ccccc2)nc1N/N=C(\C)c1ccc(N)cc1`, the fold increase in Dox EC50 was 1.3 (inactive) and the EC50 turned out to be 6.99 µM.

Turning to `COc1ccc(/C=N/Nc2cc(OC)ncn2)cc1`, the fold increase in Dox EC50 is 0.57 (inactive) and the EC50 was determined as 3.1 µM.

Regarding `CCOc1ccc(-c2nc(C#N)c(N3CCCCCC3)o2)cc1`, the fold increase in Dox EC50 was 0.56 (inactive) and the EC50 stood at 3.04 µM.

On to `Cc1nnc(NC(=O)c2ccco2)s1`, for which the fold increase in Dox EC50 was 1.16 (inactive) and the EC50 came out at 6.28 µM.

For the molecule `O=C1/C(=C\c2ccco2)SC(=S)N1c1ccc(O)cc1`, the fold increase in Dox EC50 is 0.34 (inactive) and the EC50 is 1.84 µM.

As to `COc1ccc(N2C(=O)CC(N3CCC(n4c(=O)[nH]c5ccccc54)CC3)C2=O)cc1` (centres undefined), the fold increase in Dox EC50 is 1.04 (inactive) and the EC50 amounted to 5.64 µM.

Regarding `C=CCN(C(=O)Nc1ccc(Cl)cc1)C1CC(=O)N(c2ccc(OC)cc2)C1=O` (centres undefined), the fold increase in Dox EC50 is 0.9 (inactive) and the EC50 is 4.85 µM.

In the case of `Oc1c(C(c2ccccc2)N2CCc3ccccc3C2)sc2ncnn12` (centres undefined), the fold increase in Dox EC50 is 0.45 (inactive) and the EC50 turned out to be 2.42 µM.

With `c1ccc2c(-c3nc(C4CCCCC4)no3)cc(-c3ccncc3)nc2c1`, the fold increase in Dox EC50 is 0.62 (inactive) and the EC50 was 3.32 µM.

Consider `Cc1cc(N2CCN(c3cccc(C)c3C)CC2)nc(-c2ccccc2)n1`, for which the fold increase in Dox EC50 is 0.99 (inactive) and the EC50 worked out at 5.37 µM.

Regarding `CCc1ccc(/C(C)=N/Nc2cc(Cl)nc(C)n2)cc1`, the fold increase in Dox EC50 was 0.69 (inactive) and the EC50 was 3.75 µM.

For `COc1ccc(N2CCN(c3nc(Cl)nc(N4CCOCC4)n3)CC2)cc1`, the fold increase in Dox EC50 is 0.69 (inactive) and the EC50 was 3.72 µM.

For the molecule `Cc1nnc2sc(-c3ccncc3)nn12`, the fold increase in Dox EC50 is 0.8 (inactive) and the EC50 amounted to 4.31 µM.

For `O=C(CCCCl)NC1=NN(c2ccccc2)C(=O)C1`, the fold increase in Dox EC50 was 1.56 and the EC50 was determined as 8.43 µM.

On to `O=C(COc1ccc(Br)cc1)c1ccc2c(c1)CCCC2`, for which the fold increase in Dox EC50 was 1.17 (inactive) and the EC50 came out at 6.29 µM.

For `CCc1nnc(NC(=O)C2CCCN2S(=O)(=O)c2ccc(C)cc2)s1` (centres undefined), the fold increase in Dox EC50 was 1.04 (inactive) and the EC50 amounted to 5.6 µM.

As to `O=C1NC(=Nc2ccc(Cl)cc2)SC1Cc1cccc(Cl)c1Cl` (centres undefined), the fold increase in Dox EC50 is 1.19 (inactive) and the EC50 came to 6.41 µM.

For the molecule `CCOC(=O)c1c(-c2ccc(C)o2)csc1NC(=O)CSc1ncn[nH]1`, the fold increase in Dox EC50 was 0.51 (inactive) and the EC50 was determined as 2.74 µM.

Consider `c1ccc(C(c2ccccc2)N2CCN(c3nc4ccccc4n4cnnc34)CC2)cc1`, for which the fold increase in Dox EC50 was 0.81 (inactive) and the EC50 amounted to 4.39 µM.

For `N#Cc1c(N)n(CCOC(=O)c2cccc(Br)c2)c2nc3ccccc3nc12`, the fold increase in Dox EC50 was 0.93 (inactive) and the EC50 is 5.04 µM.

Consider `Cc1csc(C(C#N)C(=O)c2cc3ccccc3o2)n1` (centres undefined), for which the fold increase in Dox EC50 is 1.19 (inactive) and the EC50 was 6.41 µM.

In the case of `C[C@]12C=CC(=O)C=C1CC[C@H]1[C@@H]3C[C@@H](O)[C@](O)(C(=O)CO)[C@@]3(C)C[C@H](O)[C@@]12F`, the fold increase in Dox EC50 was 1.41 (inactive) and the EC50 came out at 7.62 µM.

With `COc1cccc(/C=N/NC(=O)Cn2nc(C)c([N+](=O)[O-])c2C)c1O`, the fold increase in Dox EC50 is 0.12 (inactive) and the EC50 amounted to 0.673 µM.

In the case of `CC(C)c1ccc(C(=O)CSc2ncn[nH]2)cc1`, the fold increase in Dox EC50 was 0.96 (inactive) and the EC50 came out at 5.17 µM.

As for `C[C@H](C(=O)C=[N+]=[N-])N1C(=O)c2ccccc2C1=O`, the fold increase in Dox EC50 is 0.56 (inactive) and the EC50 is 3.04 µM.

On to `O=C(Cn1c(=O)c2c(ncn2Cc2ccccc2)n(Cc2ccccc2)c1=O)N1CCc2ccccc21`, for which the fold increase in Dox EC50 is 1.07 (inactive) and the EC50 is 5.76 µM.

As to `CNc1oc(-c2ccc(C)cc2)nc1P(=O)(c1ccccc1)c1ccccc1`, the fold increase in Dox EC50 was 0.95 (inactive) and the EC50 is 5.13 µM.

Turning to `Cc1ccc(C)c2sc(NC(=O)c3ccc(N4CCCCC4)c([N+](=O)[O-])c3)nc12`, the fold increase in Dox EC50 is 1.05 (inactive) and the EC50 turned out to be 5.66 µM.

For `CC(/C=C1\SC(=S)N(NC(=O)c2ccc(O)cc2)C1=O)=C\c1ccccc1`, the fold increase in Dox EC50 is 0.83 (inactive) and the EC50 amounted to 4.46 µM.

Consider `C=CCOc1c(CNc2ccc(C(=O)O)cc2)cccc1OCC`, for which the fold increase in Dox EC50 was 0.59 (inactive) and the EC50 amounted to 3.21 µM.

In the case of `CCCC(=O)NC(=S)Nc1ccc(C(C)=O)cc1`, the fold increase in Dox EC50 is 0.46 (inactive) and the EC50 was 2.48 µM.

With `Cc1cccc(NC(=O)CSc2nc(-c3ccccc3)c(C#N)c(=O)[nH]2)c1C`, the fold increase in Dox EC50 is 1.24 (inactive) and the EC50 came to 6.71 µM.

Take `CCc1nnc(NC(=O)c2ccc(S(=O)(=O)N(CC)CC)cc2)s1`: the fold increase in Dox EC50 was 0.69 (inactive) and the EC50 was found to be 3.73 µM.

With `O=C(Nc1ncc(Cc2ccc(C(F)(F)F)cc2)s1)c1ccc(-c2cccc([N+](=O)[O-])c2)o1`, the fold increase in Dox EC50 is 0.71 (inactive) and the EC50 was determined as 3.86 µM.
